{
  "source": "patent US4931447A",
  "about": "“Cycloalkylamides of (8β)-1-alkyl-6-(substituted) ergolines” (Eli Lilly and Company, priority 1989, dated 1990)",
  "key": {"[1]": {"tested_on": "Male Rats", "experiment": "Copulatory performance of male rats (Non-Maters and Non-Ejaculators), subcutaneous administration, percent responding (Table II)", "assay_type": "in vivo, rat (male Sprague-Dawley)", "procedure": "Adult male rats of the Sprague-Dawley strain were used in these studies. The sexual behavior evaluations were conducted at 2-week intervals beginning at 6 months of age and ending at 12 months of age. During the initial screening process, the male rats of various levels of sexual performance were selected for compound testing. […] Prior to treatment with a drug solution, each male rat was required to have at least two consecutive vehicle tests with similar sexual performance. Following each compound testing, additional vehicle tests were performed.\nThe mating tests were performed during the dark phase of the lighting cycle using red light illumination. Each behavioral test was initiated with the introduction of a receptive female rat into the arena and was terminated either 30 minutes later or immediately following the first postejaculatory mount. The indiees of mating performance that were evaluated for the rats capable of ejaculation included mount latency (the time interval from the introduction of the female rat to the first mount); intromission latency (the time interval from the introduction of the female rat to the first intromission); ejaculatory latency (the time interval from intromission to ejaculation); postejaculatory interval (the time from ejaculation to the next mount); mount frequency (the total number of mounts with or without intromission prior to ejaculation); intromission frequency (the number of mounts with intromission prior to ejaculation); intromission efficiency (the intromission frequency divided by the mount frequency); copulatory rate (the number of mounts per minute); copulatory frequency (the number of mounts prior to ejaculation); and copulatory efficiency (the number of mounts with intromission divided by the total number of mounts).\nEach male rat was given a solution containing either the vehicle alone in water or the compound of Example 1, (8β)-N-cyclohexyl-1-isopropyl-6-methylergoline-8-carboxamide, in the same vehicle. Vehicle was made of 1 mM (millimolar) acetic acid and 1 mM ascorbic acid.\nThe results of these studies are set forth below in Tables II-VII. In the Tables \"N\" is the number of animals used to generate the data, the average of which is provided. The specific description of the test performed is set forth in the heading of the Tables."}, "[2]": {"biological_target": "T1, 5HT2 Receptors (Rattus norvegicus, UniProt P14842)", "T1 construct": "from tissue; host or cells: rat external jugular vein (isolated, male Wistar)", "T1 sequence (P14842 whole entry)": "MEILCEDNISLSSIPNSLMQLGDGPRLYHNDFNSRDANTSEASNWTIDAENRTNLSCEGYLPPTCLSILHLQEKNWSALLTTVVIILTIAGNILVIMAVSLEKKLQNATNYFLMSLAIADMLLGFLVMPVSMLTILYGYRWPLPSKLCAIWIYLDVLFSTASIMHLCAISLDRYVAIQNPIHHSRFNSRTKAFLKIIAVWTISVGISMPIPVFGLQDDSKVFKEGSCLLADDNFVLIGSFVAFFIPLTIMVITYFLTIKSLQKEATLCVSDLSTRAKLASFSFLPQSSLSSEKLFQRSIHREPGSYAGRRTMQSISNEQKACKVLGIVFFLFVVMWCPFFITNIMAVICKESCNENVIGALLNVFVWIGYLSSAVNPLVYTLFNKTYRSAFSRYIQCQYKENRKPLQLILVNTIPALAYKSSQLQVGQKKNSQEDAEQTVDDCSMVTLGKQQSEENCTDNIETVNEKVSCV", "experiment": "Apparent antagonist dissociation constant (KB) at 5HT2 receptors, serotonin-induced contraction of isolated rat external jugular vein", "assay_type": "cell-based, rat (male Wistar)", "text": "Male Wistar rats (about 150-300 gram weight) were killed and their external jugular veins and thoracic aortas dissected free of connective tissue, cannulated in situ and placed in a modified Krebs' bicarbonate buffer in a suitable tissue bath. Two L-shaped 30-gauge stainless-steel hypodermic needles were inserted in each cannula and the dissected vessels gently pushed onto the needles. One needle was attached with thread to a stationary glass rod and the other to the transducer. [The procedure employed was that described by Hooker, Calkins and Fleisch, Blood Vessels, 14, 1, (1977) for use with circular smooth muscle preparations.]\nThe modified Krebs' bicarbonate buffer was composed of the following (concentrations in millimoles): sodium chloride, 118.2; potassium chloride, 4.6; calcium chloride dihydrate, 1.6; potassium dihydrogenphosphate, 1.2; magnesium sulfate, 1.2; dextrose, 10.0; sodium bicarbonate, 24.8; and water q.s. to 1000 g. The tissue baths were maintained at 37° C. and were aerated with 95% oxygen: 5% carbon dioxide (v:v). An initial optimum resting force of 1 g and 4 g was applied to the jugular vein and aorta, respectively. Isometric contractions were recorded as changes in grams of force on a Beckman Dynograph with Statham UC-3 transducers and microscale accessory attachment. Tissues were allowed to equilibrate 1 to 2 hours before exposure to drugs. Control responses to serotonin in the jugular vein and to norepinephrine in the aorta were obtained. The vessels were then incubated with appropriate concentrations of the test compound for one hour. Responses to serotonin or to norepinephrine were then repeated in the presence of the test compound. Contraction to serotonin was evaluated in the jugular vein since this tissue produces marked responses to serotonin in the absence of alpha receptors. See Cohen and Wiley, J. Pharm. Exp. Ther., 205, 400 (1978). Alpha receptor antagonist activity was evaluated in the aorta.\nApparent antagonist dissociation constants were determined for each concentration of the test compound according to the following equation: [formula] wherein [B] is the concentration of the antagonist and the dose ratio is the ED50 of the agonist in the presence of the antagonist divided by the control ED50. […] The -log KB values obtained for representative sensitive compounds of this invention and are given below in Table 1. ln the Table, column I provides the Example Number of the compound evaluated in the screen; columns 2-6, the identity of the compound evaluated in the screen when taken with the structure provided; and column 7, the apparent dissociation constant for the test compound."}},
  "data": [
    {"compound": "CC(C)n1cc2c3c(cccc31)[C@H]1C[C@@H](C(=O)NC3CCCCC3)CN(C)[C@@H]1C2", "note": "[Example 1, (8β)-N-Cyclohexyl-1-isopropyl-6-methylergoline-8-carboxamide]", "values": [
      {"measurement": "Non-Ejaculators Percent Responding", "setting": "[1]; 1 ng/kg s.c., 1/9 responding", "result": 11.1, "unit": "%"},
      {"measurement": "Non-Maters Percent Responding", "setting": "[1]; 1 ng/kg s.c., 1/16 responding", "result": 6.3, "unit": "%"},
      {"measurement": "Non-Maters Percent Responding", "setting": "[1]; 10 ng/kg s.c., 4/14 responding", "result": 28.6, "unit": "%"},
      {"measurement": "Non-Ejaculators Percent Responding", "setting": "[1]; 10 ng/kg s.c., 9/20 responding", "result": 45.0, "unit": "%"},
      {"measurement": "Non-Ejaculators Percent Responding", "setting": "[1]; 100 ng/kg s.c., 6/11 responding", "result": 54.5, "unit": "%"},
      {"measurement": "Non-Maters Percent Responding", "setting": "[1]; 100 ng/kg s.c., 8/14 responding", "result": 57.1, "unit": "%"},
      {"measurement": "Non-Maters Percent Responding", "setting": "[1]; 1000 ng/kg s.c., 7/12 responding", "result": 58.3, "unit": "%"},
      {"measurement": "Non-Ejaculators Percent Responding", "setting": "[1]; 1000 ng/kg s.c., 9/16 responding", "result": 56.3, "unit": "%"},
      {"measurement": "Non-Maters Percent Responding", "setting": "[1]; 10000 ng/kg s.c., 6/11 responding", "result": 54.5, "unit": "%"},
      {"measurement": "Non-Ejaculators Percent Responding", "setting": "[1]; 10000 ng/kg s.c., 11/18 responding", "result": 61.1, "unit": "%"},
      {"measurement": "Kb", "setting": "[2]", "result": 0.214, "unit": "nM"}
    ]}
  ]
}
